According to US7977481B2, “Pyrimidinyl-thiophene kinase modulators” (SGX Pharmaceuticals, Inc., priority 2005, dated 2011):

How the values were obtained:
MET kinase = biological target: T1, MET kinase (Homo sapiens, UniProt P08581); assay: MET Luminescence-Based ATP Depletion Enzyme Assay; assay type: biochemical; settings: 10 μM ATP
T1 construct: expressing the kinase domain of human Met; 6x Histidine tag (cleaved yes); made in house; host or cells: Sf9 insect cells
Protocol: MET Luminescence-Based ATP Depletion Enzyme Assay
Materials: Poly Glu-Tyr (4:1) substrate (Sigma Cat#P-0275), ATP (Sigma Cat#A-3377, FW=551), HEPES buffer, pH 7.5, Bovine serum albumin (BSA) (Roche 92423420), MgCl2, Staurosporine (Streptomyces sp. Sigma Cat#85660-1MG), white Costar 384-well flat-bottom plate (VWR Cat#29444-088). MET kinase (see below), Kinase-Glo™ (Promega Cat#V6712).
Stock Solutions: 10 mg/ml poly Glu-Tyr in water, stored at −20° C.; 100 mM HEPES buffer, pH 7.5 (5 ml 1M stock+45 ml miliQH2O); 10 mM ATP (5.51 mg/ml in dH2O) stored at −20° C. (diluted 50 μl into total of 10 ml miliQH2O daily=50 μM ATP working stock); 1% BSA (1 g BSA in 100 ml 0.1M HEPES, pH 7.5, stored at −20° C.), 100 mM MgCl2; 200 μM Staurosporine, 2× Kinase-Glo™ reagent (made fresh or stored at −20° C.).
Standard Assay Setup for 384-well format (20 μl kinase reaction, 40 μl detection reaction): 10 mM MgCl2; 0.3 mg/ml poly Glu-Tyr; 0.1% BSA; 1 μl test compound (in DMSO); 0.4 μg/ml MET kinase; 10 μM ATP; 100 mM HEPES buffer. Positive controls contained DMSO with no test compound. Negative controls contained 10 μM staurosporine. The kinase reactions were initiated at time t=0 by the addition of ATP. Kinase reactions were incubated at 21° C. for 60 min, then 20 μl of Kinase-Glo™ reagent were added to each well to quench the kinase reaction and initiate the luminescence reaction. After a 20 min incubation at 21° C., the luminescence was detected in a plate-reading luminometer.
The cell pellets produced from half of a 12 L Sf9 insect cell culture expressing the kinase domain of human Met were resuspended in a buffer containing 50 mM Tris-HCl pH 7.7 and 250 mM NaCl, in a volume of approximately 40 ml per 1 L of original culture. One tablet of Roche Complete, EDTA-free protease inhibitor cocktail (Cat#1873580) was added per 1 L of original culture. The suspension was stirred for 1 hour at 4° C. Debris was removed by centrifugation for 30 minutes at 39,800×g at 4° C. The supernatant was decanted into a 500 ml beaker and 10 ml of 50% slurry of Qiagen Ni-NTA Agarose (Cat#30250) that had been pre-equilibrated in 50 mM Tris-HCl pH 7.8, 50 mM NaCl, 10% Glycerol, 10 mM Imidazole, and 10 mM Methionine, were added and stirred for 30 minutes at 4° C. The sample was then poured into a drip column at 4° C. and washed with 10 column volumes of 50 mM Tris-HCl pH 7.8, 500 mM NaCl, 10% Glycerol, 10 mM Imidazole, and 10 mM Methionine. The protein was eluted using a step gradient with two column volumes each of the same buffer containing 50 mM, 200 mM, and 500 mM Imidazole, sequentially. The 6× Histidine tag was cleaved overnight using 40 units of TEV protease (Invitrogen Cat#10127017) per 1 mg of protein while dialyzing in 50 mM Tris-HCl pH 7.8, 500 mM NaCl, 10% Glycerol, 10 mM Imidazole, and 10 mM Methionine at 4° C. The 6× Histidine tag was removed by passing the sample over a Pharmacia 5 ml IMAC column (Cat#17-0409-01) charged with Nickel and equilibrated in 50 mM Tris-HCl pH 7.8, 500 mM NaCl, 10% Glycerol, 10 mM Imidazole, and 10 mM Methionine. The cleaved protein bound to the Nickel column at a low affinity and was eluted with a step gradient. The step gradient was run with 15% and then 80% of the B-side (A-side=50 mM Tris-HCl pH 7.8, 500 mM NaCl, 10% Glycerol, 10 mM Imidazole, and 10 mM Methionine; B-side=50 mM Tris-HCl pH 7.8, 500 mM NaCl, 10% Glycerol, 500 mM Imidazole, and 10 mM Methionine) for 4 column volumes each. The Met protein eluted in the first step (15%), whereas the non-cleaved Met and the cleaved Histidine tag eluted in the 80% fractions. The 15% fractions were pooled after SDS-PAGE gel analysis confirmed the presence of cleaved Met; further purification was done by gel filtration chromatography on an Amersham Biosciences HiLoad 16/60 Superdex 200 prep grade (Cat#17-1069-01) equilibrated in 50 mM Tris-HCl pH 8.5, 150 mM NaCl, 10% Glycerol and 5 mM DTT. […]

HCT116 cells = assay: 96-well XTT cell survival assay (AurA XTT); assay type: cell-based; settings: Homo sapiens, HCT-116, 72 hours
Protocol: HCT116 cells were maintained in McCoy's 5a Medium supplemented with 10% fetal bovine serum (FBS) 2 mM L-Glutamine and 100 units penicillin/100 μg streptomycin, at 37° C. in 5% CO2
Compounds were tested in the following assays in duplicate.
96-well XTT assay: Cells were grown in growth media containing various concentrations of compounds (duplicates) on a 96-well flat bottom plate for 72 hours at 37° C. in 5% CO2. The starting cell number was 5000 cells per well and volume was 120 μl. At the end of the 72-hour incubation, 40 μl of XTT labeling mixture (50:1 solution of sodium 3′-[1-(phenylaminocarbonyl)-3,4-tetrazolium]-bis(4-methoxy-6-nitro) benzene sulfonic acid hydrate and Electron-coupling reagent: PMS (N-methyl dibenzopyrazine methyl sulfate) were added to each well of the plate. After an additional 2-6 hours […] with a spectrophotometer.

T1 sequence (P08581 1078-1345 limits assumed): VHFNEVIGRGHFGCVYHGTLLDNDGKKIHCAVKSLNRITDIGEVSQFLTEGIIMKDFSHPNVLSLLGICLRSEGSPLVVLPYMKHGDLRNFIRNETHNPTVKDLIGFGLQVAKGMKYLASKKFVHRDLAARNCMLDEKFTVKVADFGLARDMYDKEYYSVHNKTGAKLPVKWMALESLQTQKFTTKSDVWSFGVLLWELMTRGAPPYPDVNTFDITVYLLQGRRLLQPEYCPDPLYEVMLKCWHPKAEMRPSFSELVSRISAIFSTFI

| Structure (SMILES) | IC50 (MET kinase) | IC50 (HCT116 cells) |
| --- | --- | --- |
| OC1CCN(Cc2cccc(Nc3nccc(-c4ccc(CNc5ccccc5Cl)s4)n3)c2)CC1 | 1000 to 5000 nM |  |
| CCN(CCC#N)C(=O)c1ccc(-c2ccnc(Nc3cccc(C(C)O)c3)n2)s1 (stereo not shown) |  | < 1000 nM |
| C[C@@H](NC(=O)c1ccc(-c2ccnc(Nc3cccc(CN4CCN(CCO)CC4)c3)n2)s1)c1ccccc1 | < 1000 nM | < 1000 nM |
| CC(O)c1cccc(Nc2nccc(-c3ccc(S(=O)(=O)Cc4ccccc4)s3)n2)c1 (stereo not shown) | < 1000 nM |  |
| COc1ccc(Nc2nccc(-c3ccc(Br)s3)n2)cc1C(=O)N(C)C | 1000 to 5000 nM | 1000 to 5000 nM |
| C[C@@H](NC(=O)c1ccc(-c2ccnc(Nc3cccc(CN4CCC(O)CC4)c3)n2)s1)c1ccccc1 | < 1000 nM | < 1000 nM |
| CC(O)c1cccc(Nc2nccc(-c3ccc(-c4cccnc4)s3)n2)c1 (stereo not shown) | 1000 to 5000 nM | 1000 to 5000 nM |
| O=C(NCc1ccccc1)c1ccc(-c2ccnc(Nc3ccc(CCO)cc3)n2)s1 | 1000 to 5000 nM | 1000 to 5000 nM |
| CCC1CCCCN1S(=O)(=O)c1ccc(-c2ccnc(Nc3cccc(C(C)O)c3)n2)s1 (stereo not shown) | < 1000 nM |  |
| Brc1ccc(-c2ccnc(Nc3cccc(CN4CCOCC4)c3)n2)s1 | 1000 to 5000 nM |  |
| CCN(CCC#N)S(=O)(=O)c1ccc(-c2ccnc(Nc3cccc(C)c3)n2)s1 | < 1000 nM | 1000 to 5000 nM |
| CCC(=O)Nc1ccc(-c2ccnc(Nc3cccc(C)c3)n2)s1 | 1000 to 5000 nM | 1000 to 5000 nM |
| O=C(c1cccc(Nc2nccc(-c3ccc(Br)s3)n2)c1)N1CCN(CCO)CC1 | 1000 to 5000 nM | 1000 to 5000 nM |
| CC(O)c1cccc(Nc2nccc(-c3ccc(S(=O)(=O)N(C)C)s3)n2)c1 (stereo not shown) | 1000 to 5000 nM | 1000 to 5000 nM |
| CN(Cc1ccccc1)C(=O)c1ccc(-c2ccnc(Nc3ccc(CCO)cc3)n2)s1 |  | 1000 to 5000 nM |
| CCN(CCC#N)S(=O)(=O)c1ccc(-c2ccnc(Nc3cccc(C(C)O)c3)n2)s1 (stereo not shown) | < 1000 nM | 1000 to 5000 nM |
| CN(C)C(=O)c1cccc(Nc2nccc(-c3ccc(Br)s3)n2)c1 | 1000 to 5000 nM |  |
| COc1ccc(Nc2nccc(-c3ccc(Br)s3)n2)cc1OC | 1000 to 5000 nM |  |
